Experimental data from ChEMBL document CHEMBL3885861, “Open TG-GATES”.

Species: Rattus norvegicus
Assay: Open TG-GATES - Regimen: Single
Type: toxicity, organism-based, Sprague-Dawley
Parameters: regimen Single, gender Male, age 6 weeks
Conditions: in vivo, po, 0 mg/kg, route gavage, dose level Control; for APTT / Bas / Eos / Fbg / Hb / Ht / Lym / MCH / MCHC / MCV / Mono / PT / Plat / RBC / Ret / WBC: tissue Blood; for KIDNEY_L / KIDNEY_R / KIDNEY_TOTAL: tissue Kidney; for LIVER: tissue Liver

C#C[C@]1(O)CC[C@H]2[C@@H]3CCc4cc(O)ccc4[C@H]3CC[C@@]21C [ETHINYL ESTRADIOL]
TERMINAL_BW (3 h): 196.6 g | APTT (3 h): 16.9 s | Bas (3 h): 0% | Eos (3 h): 0.8% | Fbg (3 h): 256 mg/dL | Hb (3 h): 13.2 g/dL | Ht (3 h): 39.9% | Lym (3 h): 79.4% | MCH (3 h): 21.8 pg | MCHC (3 h): 33.1% | MCV (3 h): 66 fL | Mono (3 h): 3.8% | PT (3 h): 12.2 s | Plat (3 h): 117 x10_4/uL | RBC (3 h): 604.8 x10_4/ul | Ret (3 h): 9.9% | WBC (3 h): 82.1 x10_2/uL | KIDNEY_L (3 h): 0.8 g | KIDNEY_R (3 h): 0.8 g | KIDNEY_TOTAL (3 h): 1.7 g | LIVER (3 h): 8.6 g | ALP (3 h, tissue Plasma): 1558.8 IU/L | ALT (3 h, tissue Plasma): 44 IU/L | AST (3 h, tissue Plasma): 77.6 IU/L | BUN (3 h, tissue Plasma): 10.6 mg/dL | CRE (3 h, tissue Plasma): 0.2 mg/dL | Ca (3 h, tissue Plasma): 11.3 mg/dL | Cl (3 h, tissue Plasma): 107 meq/L | DBIL (3 h, tissue Plasma): 0.02 mg/dL | IP (3 h, tissue Plasma): 8.6 mg/dL | K (3 h, tissue Plasma): 4 meq/L | LDH (3 h, tissue Plasma): 56 IU/L | Na (3 h, tissue Plasma): 142.4 meq/L | PL (3 h, tissue Plasma): 157.6 mg/dL | RALB (3 h, tissue Plasma): 2.6 g/dL | TBIL (3 h, tissue Plasma): 0.044 mg/dL | TC (3 h, tissue Plasma): 86.2 mg/dL | TP (3 h, tissue Plasma): 5.5 g/dL | gamma-GTP (3 h, tissue Plasma): 1.2 IU/L | TERMINAL_BW (6 h): 194 g | APTT (6 h): 16.2 s | Bas (6 h): 0% | Eos (6 h): 1% | Fbg (6 h): 265.8 mg/dL | Hb (6 h): 13.2 g/dL | Ht (6 h): 39.3% | Lym (6 h): 75% | MCHC (6 h): 33.6% | MCV (6 h): 63.4 fL | PT (6 h): 12.3 s | Plat (6 h): 123.8 x10_4/uL | RBC (6 h): 620.2 x10_4/ul | Ret (6 h): 9.8% | WBC (6 h): 90.8 x10_2/uL | KIDNEY_L (6 h): 0.8 g | KIDNEY_R (6 h): 0.8 g | KIDNEY_TOTAL (6 h): 1.7 g | LIVER (6 h): 7.6 g | ALP (6 h, tissue Plasma): 1686.2 IU/L | ALT (6 h, tissue Plasma): 42 IU/L | AST (6 h, tissue Plasma): 79.2 IU/L | BUN (6 h, tissue Plasma): 7.6 mg/dL | CRE (6 h, tissue Plasma): 0.2 mg/dL | Ca (6 h, tissue Plasma): 10.8 mg/dL | Cl (6 h, tissue Plasma): 109.4 meq/L | DBIL (6 h, tissue Plasma): 0.012 mg/dL | IP (6 h, tissue Plasma): 10.2 mg/dL | K (6 h, tissue Plasma): 4 meq/L | LDH (6 h, tissue Plasma): 53.6 IU/L | Na (6 h, tissue Plasma): 144.6 meq/L | PL (6 h, tissue Plasma): 122.6 mg/dL | RALB (6 h, tissue Plasma): 2.6 g/dL | TBIL (6 h, tissue Plasma): 0.046 mg/dL | TC (6 h, tissue Plasma): 75.6 mg/dL | TP (6 h, tissue Plasma): 5.4 g/dL | gamma-GTP (6 h, tissue Plasma): 1 IU/L | TERMINAL_BW (9 h): 195.8 g | Bas (9 h): 0% | Eos (9 h): 1% | Fbg (9 h): 265.2 mg/dL | Hb (9 h): 12.8 g/dL | Ht (9 h): 38% | Lym (9 h): 72.2% | MCH (9 h): 21.8 pg | MCHC (9 h): 33.6% | MCV (9 h): 64.8 fL | PT (9 h): 12.4 s | Plat (9 h): 119.3 x10_4/uL | RBC (9 h): 588 x10_4/ul | Ret (9 h): 9.5% | WBC (9 h): 73.4 x10_2/uL | KIDNEY_L (9 h): 0.9 g | KIDNEY_R (9 h): 0.9 g | KIDNEY_TOTAL (9 h): 1.7 g | LIVER (9 h): 7 g | ALP (9 h, tissue Plasma): 1662.8 IU/L | ALT (9 h, tissue Plasma): 42 IU/L | AST (9 h, tissue Plasma): 75 IU/L | BUN (9 h, tissue Plasma): 9.2 mg/dL | CRE (9 h, tissue Plasma): 0.2 mg/dL | Ca (9 h, tissue Plasma): 10.5 mg/dL | Cl (9 h, tissue Plasma): 107.8 meq/L | DBIL (9 h, tissue Plasma): 0.01 mg/dL | IP (9 h, tissue Plasma): 10.7 mg/dL | K (9 h, tissue Plasma): 3.8 meq/L | LDH (9 h, tissue Plasma): 42 IU/L | Na (9 h, tissue Plasma): 144 meq/L | PL (9 h, tissue Plasma): 125.4 mg/dL | RALB (9 h, tissue Plasma): 2.5 g/dL | TBIL (9 h, tissue Plasma): 0.04 mg/dL | TC (9 h, tissue Plasma): 77 mg/dL | TP (9 h, tissue Plasma): 5.2 g/dL | gamma-GTP (9 h, tissue Plasma): 1.2 IU/L | TERMINAL_BW (24 h): 203.2 g | APTT (24 h): 16.4 s | Bas (24 h): 0% | Eos (24 h): 1% | Fbg (24 h): 245.4 mg/dL | Hb (24 h): 12.9 g/dL | Ht (24 h): 38.3% | Lym (24 h): 76.2% | MCH (24 h): 21.6 pg | MCHC (24 h): 33.6% | MCV (24 h): 64.4 fL | Mono (24 h): 3.6% | PT (24 h): 12.5 s | Plat (24 h): 112.7 x10_4/uL | RBC (24 h): 594.4 x10_4/ul | Ret (24 h): 8.5% | WBC (24 h): 103.2 x10_2/uL | KIDNEY_L (24 h): 0.9 g | KIDNEY_R (24 h): 0.9 g | KIDNEY_TOTAL (24 h): 1.7 g | LIVER (24 h): 8.9 g | ALP (24 h, tissue Plasma): 1908.8 IU/L | ALT (24 h, tissue Plasma): 52.2 IU/L | AST (24 h, tissue Plasma): 78.6 IU/L | BUN (24 h, tissue Plasma): 13.8 mg/dL | CRE (24 h, tissue Plasma): 0.2 mg/dL | Cl (24 h, tissue Plasma): 104.8 meq/L | DBIL (24 h, tissue Plasma): 0.01 mg/dL | GLC (24 h, tissue Plasma): 194.2 mg/dL | IP (24 h, tissue Plasma): 7.7 mg/dL | LDH (24 h, tissue Plasma): 62.4 IU/L | Na (24 h, tissue Plasma): 141 meq/L | PL (24 h, tissue Plasma): 136.2 mg/dL | RALB (24 h, tissue Plasma): 2.5 g/dL | TBIL (24 h, tissue Plasma): 0.034 mg/dL
